Legend:
Format in all cases: in vitro ADME
[1] = target: T1, UGT1A1 (Homo sapiens, UniProt P22309); experiment: Glucuronidation assay, UGT1A1-over-expressing HEK293 cell homogenate
T1 sequence (P22309 26-533): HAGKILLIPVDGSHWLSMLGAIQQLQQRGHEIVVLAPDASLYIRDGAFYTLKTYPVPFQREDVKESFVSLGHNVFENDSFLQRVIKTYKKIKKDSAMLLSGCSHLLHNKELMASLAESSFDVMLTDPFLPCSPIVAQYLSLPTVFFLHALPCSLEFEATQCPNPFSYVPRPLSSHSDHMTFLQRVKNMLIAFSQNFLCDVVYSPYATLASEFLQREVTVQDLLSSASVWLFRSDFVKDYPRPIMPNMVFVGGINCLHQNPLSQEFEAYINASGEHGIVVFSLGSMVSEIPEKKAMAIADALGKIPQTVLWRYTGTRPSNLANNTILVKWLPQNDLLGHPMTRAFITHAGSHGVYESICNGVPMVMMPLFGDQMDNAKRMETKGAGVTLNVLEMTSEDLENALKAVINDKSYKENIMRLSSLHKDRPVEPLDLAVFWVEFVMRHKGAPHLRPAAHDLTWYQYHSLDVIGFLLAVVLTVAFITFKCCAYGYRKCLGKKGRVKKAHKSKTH

[2] = target: T2, UGT1A7 (Homo sapiens, UniProt Q9HAW7); experiment: Glucuronidation assay, UGT1A7-over-expressing HEK293 cell homogenate
T2 sequence (Q9HAW7 26-530): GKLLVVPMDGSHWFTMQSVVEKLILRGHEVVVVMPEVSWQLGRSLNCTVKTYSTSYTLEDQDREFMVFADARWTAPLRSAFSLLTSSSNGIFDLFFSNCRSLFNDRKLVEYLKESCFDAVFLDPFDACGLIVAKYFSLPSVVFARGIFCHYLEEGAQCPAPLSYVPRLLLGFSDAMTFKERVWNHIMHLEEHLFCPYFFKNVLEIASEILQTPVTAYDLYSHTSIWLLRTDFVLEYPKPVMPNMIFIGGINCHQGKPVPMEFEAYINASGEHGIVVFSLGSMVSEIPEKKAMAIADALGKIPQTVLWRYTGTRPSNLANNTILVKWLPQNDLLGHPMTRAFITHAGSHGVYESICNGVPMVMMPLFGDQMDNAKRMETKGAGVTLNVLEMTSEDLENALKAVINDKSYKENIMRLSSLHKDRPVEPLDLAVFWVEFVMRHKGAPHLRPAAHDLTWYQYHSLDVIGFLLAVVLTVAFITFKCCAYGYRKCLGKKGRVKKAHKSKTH

[3] = target: T3, UGT1A8 (Homo sapiens, UniProt Q9HAW9); experiment: Glucuronidation assay, UGT1A8-over-expressing HEK293 cell homogenate
T3 sequence (Q9HAW9 26-530): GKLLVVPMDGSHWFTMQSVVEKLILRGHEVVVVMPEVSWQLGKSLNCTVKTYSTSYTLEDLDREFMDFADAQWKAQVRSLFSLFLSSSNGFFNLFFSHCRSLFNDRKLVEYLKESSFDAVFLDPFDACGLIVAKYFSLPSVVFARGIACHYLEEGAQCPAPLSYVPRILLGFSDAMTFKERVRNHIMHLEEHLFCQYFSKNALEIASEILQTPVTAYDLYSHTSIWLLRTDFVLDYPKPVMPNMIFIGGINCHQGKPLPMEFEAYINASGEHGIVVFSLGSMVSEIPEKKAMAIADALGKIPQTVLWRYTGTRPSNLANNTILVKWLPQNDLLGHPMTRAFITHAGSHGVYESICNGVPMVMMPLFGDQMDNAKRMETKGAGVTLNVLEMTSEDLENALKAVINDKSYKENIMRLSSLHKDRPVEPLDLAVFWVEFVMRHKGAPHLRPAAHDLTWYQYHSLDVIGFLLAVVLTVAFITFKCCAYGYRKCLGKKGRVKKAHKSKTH

[4] = target: T4, UGT1A9 (Homo sapiens, UniProt O60656); experiment: Glucuronidation assay, UGT1A9-over-expressing HEK293 cell homogenate
T4 sequence (O60656 26-530): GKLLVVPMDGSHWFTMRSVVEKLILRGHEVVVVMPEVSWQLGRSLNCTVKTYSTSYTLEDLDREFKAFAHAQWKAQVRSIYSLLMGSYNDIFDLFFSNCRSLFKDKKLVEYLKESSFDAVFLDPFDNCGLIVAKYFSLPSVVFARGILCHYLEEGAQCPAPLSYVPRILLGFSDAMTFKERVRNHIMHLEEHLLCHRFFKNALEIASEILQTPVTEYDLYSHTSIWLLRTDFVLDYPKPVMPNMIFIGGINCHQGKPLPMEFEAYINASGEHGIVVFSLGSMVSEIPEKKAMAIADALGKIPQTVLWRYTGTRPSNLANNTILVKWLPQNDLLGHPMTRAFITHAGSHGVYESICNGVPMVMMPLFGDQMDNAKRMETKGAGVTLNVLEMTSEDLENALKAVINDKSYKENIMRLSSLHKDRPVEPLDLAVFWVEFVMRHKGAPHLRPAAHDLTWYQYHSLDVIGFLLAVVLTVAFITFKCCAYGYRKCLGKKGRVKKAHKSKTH

[5] = target: T5, UGT1A10 (Homo sapiens, UniProt Q9HAW8); experiment: Glucuronidation assay, UGT1A10-over-expressing HEK293 cell homogenate
T5 sequence (Q9HAW8 26-530): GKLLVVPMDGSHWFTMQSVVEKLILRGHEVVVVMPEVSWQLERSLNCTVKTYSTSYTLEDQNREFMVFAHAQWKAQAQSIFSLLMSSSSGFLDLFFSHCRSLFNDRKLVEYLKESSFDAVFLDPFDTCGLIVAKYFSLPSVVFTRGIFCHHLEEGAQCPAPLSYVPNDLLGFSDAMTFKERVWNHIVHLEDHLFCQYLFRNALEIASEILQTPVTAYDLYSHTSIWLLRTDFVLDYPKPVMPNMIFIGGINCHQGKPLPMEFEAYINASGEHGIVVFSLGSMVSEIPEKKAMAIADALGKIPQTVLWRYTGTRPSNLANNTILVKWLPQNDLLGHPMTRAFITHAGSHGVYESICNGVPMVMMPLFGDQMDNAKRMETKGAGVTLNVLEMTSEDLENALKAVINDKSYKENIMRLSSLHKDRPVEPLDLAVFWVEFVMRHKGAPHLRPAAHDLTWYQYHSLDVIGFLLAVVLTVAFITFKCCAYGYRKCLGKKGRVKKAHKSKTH

[6] = target: T6, UGT2B7 (Homo sapiens, UniProt P16662); experiment: Glucuronidation assay, UGT2B7-over-expressing HEK293 cell homogenate
T6 sequence (P16662 24-529): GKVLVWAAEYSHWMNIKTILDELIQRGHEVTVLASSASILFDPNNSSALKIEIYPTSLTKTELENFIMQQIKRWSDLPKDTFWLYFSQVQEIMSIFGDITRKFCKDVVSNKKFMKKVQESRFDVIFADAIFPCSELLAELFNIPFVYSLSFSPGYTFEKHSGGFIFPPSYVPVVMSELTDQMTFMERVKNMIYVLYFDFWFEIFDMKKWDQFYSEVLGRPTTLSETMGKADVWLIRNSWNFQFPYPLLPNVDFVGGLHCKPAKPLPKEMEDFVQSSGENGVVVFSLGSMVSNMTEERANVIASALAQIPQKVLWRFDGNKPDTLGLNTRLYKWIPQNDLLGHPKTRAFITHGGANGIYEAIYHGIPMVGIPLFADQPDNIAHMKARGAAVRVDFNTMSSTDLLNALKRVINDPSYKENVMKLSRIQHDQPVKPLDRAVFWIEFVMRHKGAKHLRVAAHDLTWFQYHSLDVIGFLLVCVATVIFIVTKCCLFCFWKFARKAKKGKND

[7] = glucuronide formation from the respective diol enantiomer

O=C(O)[C@H]1O[C@@H](O[C@H]2c3cc4ccc5cccc6c7ccccc7c(c3C=C[C@@H]2O)c4c56)[C@H](O)[C@@H](O)[C@@H]1O (relative stereo) [(+)-DB[a,l]P-11-Gluc, DB[a,l]P-(+)-trans-11-Gluc,12-ol]
Km [1]: 76 ± 21 µM
ratio of (+)-DB[a,l]P-11-Gluc : (+)-DB[a,l]P-12-Gluc : (−)-DB[a,l]P-11-Gluc formation [1]: 52
kcat/Km [1, 7]: 6.1 ± 1.5 mM⁻¹ min⁻¹
Km [2]: 43 ± 7 µM
ratio of (+)-DB[a,l]P-11-Gluc : (−)-DB[a,l]P-11-Gluc formation [2]: 67
kcat/Km [2, 7]: 0.23 ± 0.11 mM⁻¹ min⁻¹
Km [3]: 194 ± 39 µM
ratio of (+)-DB[a,l]P-11-Gluc : (−)-DB[a,l]P-11-Gluc formation [3]: 48
kcat/Km [3, 7]: 0.80 ± 0.12 mM⁻¹ min⁻¹
Km [4]: 170 ± 10 nM
ratio of (+)-DB[a,l]P-11-Gluc : (−)-DB[a,l]P-11-Gluc formation [4]: 30
fold higher activity (kcat/KM) of UGT1A9 than UGT1A1 ([4]; comparing kcat/KM values): approximately 489 fold
kcat/Km [4, 7]: 2980 ± 146 mM⁻¹ min⁻¹
Km [5]: 33 ± 9.8 µM
ratio of (+)-DB[a,l]P-11-Gluc : (+)-DB[a,l]P-12-Gluc : (−)-DB[a,l]P-11-Gluc formation [5]: 19
fold higher activity (kcat/KM) of UGT1A10 compared to UGTs 1A7 and 1A8 ([5]; comparing kcat/KM values): 12–72 fold
kcat/Km [5, 7]: 9.5 ± 2.0 mM⁻¹ min⁻¹
Km [6]: 175 ± 25 µM
kcat/Km [6, 7]: 0.38 ± 0.01 mM⁻¹ min⁻¹

From paper PMC3177992 (Chemical research in toxicology, 2011)
